Assays:
Assay in all cases: radiometric filter-binding kinase assay
[1] = tested on: AKT2 (human), P31751 [S474D]
AURKA (human) = AURKA (human) (UniProt O14965)
BTK (human) = BTK (human) (UniProt Q06187)
CLK2 (human) = CLK2 (human) (UniProt P49760)
CSNK1D (human) = CSNK1D (human) (UniProt P48730)
CSNK2A1 (human) = CSNK2A1 (human) (UniProt P68400)
DYRK2 (human) = DYRK2 (human) (UniProt Q92630)
FLT1 (human) = FLT1 (human) (UniProt P17948)
HIPK1 (human) = HIPK1 (human) (UniProt Q86Z02)
HIPK2 (human) = HIPK2 (human) (UniProt Q9H2X6)
INSR (human) = INSR (human) (UniProt P06213)
INSRR (human) = INSRR (human) (UniProt P14616)
IRAK4 (human) = IRAK4 (human) (UniProt Q9NWZ3)
JAK2 JH1 JH2 (human) = JAK2 JH1 JH2 (human) (UniProt O60674)
MAP3K1 (human) = MAP3K1 (human) (UniProt Q13233)
MAP3K9 (human) = MAP3K9 (human) (UniProt P80192)
MAPK1 (human) = MAPK1 (human) (UniProt P28482)
MAPK11 (human) = MAPK11 (human) (UniProt Q15759)
MAPK14 (human) = MAPK14 (human) (UniProt Q16539)
MAPK15 (human) = MAPK15 (human) (UniProt Q8TD08)
MAPKAPK3 (human) = MAPKAPK3 (human) (UniProt Q16644)
MARK3 (human) = MARK3 (human) (UniProt P27448)
MARK4 (human) = MARK4 (human) (UniProt Q96L34)
MKNK2 (human) = MKNK2 (human) (UniProt Q9HBH9)
NEK2 (human) = NEK2 (human) (UniProt P51955)
NEK6 (human) = NEK6 (human) (UniProt Q9HC98)
NTRK1 (human) = NTRK1 (human) (UniProt P04629)
PRKCA (human) = PRKCA (human) (UniProt P17252)
RIPK2 (human) = RIPK2 (human) (UniProt O43353)
RPS6KA1 KD1 KD2 (human) = RPS6KA1 KD1 KD2 (human) (UniProt Q15418)
RPS6KA5 KD1 KD2 (human) = RPS6KA5 KD1 KD2 (human) (UniProt O75582)
[2] = tested on: RPS6KB1 (human), P23443 [T412E]
SRPK1 (human) = SRPK1 (human) (UniProt Q96SB4)
[3] = target: STK11 CAB39 STRADA (human) (UniProt Q9Y376+Q7RTN6+Q15831)
YES1 (human) = YES1 (human) (UniProt P07947)

MARK3 (human), sequence (P27448 whole entry, looked up): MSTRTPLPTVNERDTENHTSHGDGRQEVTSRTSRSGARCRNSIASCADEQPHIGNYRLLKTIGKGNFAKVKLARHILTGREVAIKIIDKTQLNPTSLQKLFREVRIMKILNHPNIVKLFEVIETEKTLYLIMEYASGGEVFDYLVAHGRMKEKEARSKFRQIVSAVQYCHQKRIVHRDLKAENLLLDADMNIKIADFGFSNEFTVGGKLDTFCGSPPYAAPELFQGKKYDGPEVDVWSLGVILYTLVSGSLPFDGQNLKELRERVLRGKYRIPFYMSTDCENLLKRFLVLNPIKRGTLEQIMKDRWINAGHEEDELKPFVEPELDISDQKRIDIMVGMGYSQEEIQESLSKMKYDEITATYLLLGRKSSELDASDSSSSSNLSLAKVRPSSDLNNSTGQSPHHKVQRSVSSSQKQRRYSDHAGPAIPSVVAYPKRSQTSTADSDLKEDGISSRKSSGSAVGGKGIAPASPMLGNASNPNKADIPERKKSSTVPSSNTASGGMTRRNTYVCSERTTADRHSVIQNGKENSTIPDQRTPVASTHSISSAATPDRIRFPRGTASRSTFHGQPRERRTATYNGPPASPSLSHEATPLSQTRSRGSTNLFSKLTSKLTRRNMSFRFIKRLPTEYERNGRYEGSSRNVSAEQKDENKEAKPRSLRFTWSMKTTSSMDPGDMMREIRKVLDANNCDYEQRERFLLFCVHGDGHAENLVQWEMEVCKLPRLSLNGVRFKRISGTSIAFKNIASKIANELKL
RPS6KA5 KD1 KD2 (human), sequence (O75582 whole entry, looked up): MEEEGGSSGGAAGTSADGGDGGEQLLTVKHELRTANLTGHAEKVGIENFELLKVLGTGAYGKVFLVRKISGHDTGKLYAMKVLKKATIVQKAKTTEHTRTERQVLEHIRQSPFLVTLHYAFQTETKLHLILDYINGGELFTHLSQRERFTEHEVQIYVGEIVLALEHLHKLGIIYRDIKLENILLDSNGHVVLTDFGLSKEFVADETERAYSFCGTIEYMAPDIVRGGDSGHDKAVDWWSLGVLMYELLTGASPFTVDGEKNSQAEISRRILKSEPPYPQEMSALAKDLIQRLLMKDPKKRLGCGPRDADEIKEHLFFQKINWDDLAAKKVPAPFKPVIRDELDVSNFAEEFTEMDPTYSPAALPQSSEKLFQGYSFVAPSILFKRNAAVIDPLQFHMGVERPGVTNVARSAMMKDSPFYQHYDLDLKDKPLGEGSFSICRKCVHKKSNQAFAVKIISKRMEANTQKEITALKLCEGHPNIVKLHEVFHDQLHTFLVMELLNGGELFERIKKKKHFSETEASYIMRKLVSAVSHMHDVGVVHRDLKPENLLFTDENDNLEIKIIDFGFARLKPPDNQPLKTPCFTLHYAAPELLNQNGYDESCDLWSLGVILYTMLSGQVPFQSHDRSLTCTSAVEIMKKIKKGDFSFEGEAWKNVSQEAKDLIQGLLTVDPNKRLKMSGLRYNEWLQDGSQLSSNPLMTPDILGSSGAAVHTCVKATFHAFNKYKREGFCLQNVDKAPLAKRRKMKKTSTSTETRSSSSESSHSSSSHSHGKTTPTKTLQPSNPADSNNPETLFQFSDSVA
FLT1 (human), sequence (P17948 whole entry, looked up): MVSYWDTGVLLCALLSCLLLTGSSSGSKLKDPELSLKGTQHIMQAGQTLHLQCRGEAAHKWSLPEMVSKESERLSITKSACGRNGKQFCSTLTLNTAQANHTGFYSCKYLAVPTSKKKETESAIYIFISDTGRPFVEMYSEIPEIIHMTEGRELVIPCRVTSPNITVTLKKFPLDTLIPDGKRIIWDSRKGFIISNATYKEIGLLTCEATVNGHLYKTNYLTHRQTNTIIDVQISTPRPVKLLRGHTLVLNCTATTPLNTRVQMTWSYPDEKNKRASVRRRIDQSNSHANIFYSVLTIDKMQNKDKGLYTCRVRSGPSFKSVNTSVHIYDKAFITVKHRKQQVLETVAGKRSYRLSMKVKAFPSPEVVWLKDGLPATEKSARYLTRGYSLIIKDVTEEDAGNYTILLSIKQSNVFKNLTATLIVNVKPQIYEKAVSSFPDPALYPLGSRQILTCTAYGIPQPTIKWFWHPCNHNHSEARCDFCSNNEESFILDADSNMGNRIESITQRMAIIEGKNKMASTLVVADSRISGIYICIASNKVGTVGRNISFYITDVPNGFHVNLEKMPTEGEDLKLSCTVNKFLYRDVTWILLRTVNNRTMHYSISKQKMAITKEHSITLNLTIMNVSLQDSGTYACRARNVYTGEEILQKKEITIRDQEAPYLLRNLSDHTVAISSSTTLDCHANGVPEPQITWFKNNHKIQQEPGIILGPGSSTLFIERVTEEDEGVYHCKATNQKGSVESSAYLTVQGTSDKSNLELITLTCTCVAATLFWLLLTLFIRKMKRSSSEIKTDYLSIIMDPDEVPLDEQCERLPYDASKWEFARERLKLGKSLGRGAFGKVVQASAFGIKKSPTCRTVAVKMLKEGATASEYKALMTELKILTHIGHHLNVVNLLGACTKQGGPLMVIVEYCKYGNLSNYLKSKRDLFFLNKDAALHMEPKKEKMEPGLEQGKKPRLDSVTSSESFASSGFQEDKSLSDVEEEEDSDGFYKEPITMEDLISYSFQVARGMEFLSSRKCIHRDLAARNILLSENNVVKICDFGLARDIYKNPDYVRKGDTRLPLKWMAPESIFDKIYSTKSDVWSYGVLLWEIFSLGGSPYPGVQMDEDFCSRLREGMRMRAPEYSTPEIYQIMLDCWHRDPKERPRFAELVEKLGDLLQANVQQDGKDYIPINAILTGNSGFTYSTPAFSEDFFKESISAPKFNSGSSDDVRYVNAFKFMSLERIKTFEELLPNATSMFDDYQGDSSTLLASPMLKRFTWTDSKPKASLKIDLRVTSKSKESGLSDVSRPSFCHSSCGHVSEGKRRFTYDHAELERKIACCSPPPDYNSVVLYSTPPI
MKNK2 (human), sequence (Q9HBH9 whole entry, looked up): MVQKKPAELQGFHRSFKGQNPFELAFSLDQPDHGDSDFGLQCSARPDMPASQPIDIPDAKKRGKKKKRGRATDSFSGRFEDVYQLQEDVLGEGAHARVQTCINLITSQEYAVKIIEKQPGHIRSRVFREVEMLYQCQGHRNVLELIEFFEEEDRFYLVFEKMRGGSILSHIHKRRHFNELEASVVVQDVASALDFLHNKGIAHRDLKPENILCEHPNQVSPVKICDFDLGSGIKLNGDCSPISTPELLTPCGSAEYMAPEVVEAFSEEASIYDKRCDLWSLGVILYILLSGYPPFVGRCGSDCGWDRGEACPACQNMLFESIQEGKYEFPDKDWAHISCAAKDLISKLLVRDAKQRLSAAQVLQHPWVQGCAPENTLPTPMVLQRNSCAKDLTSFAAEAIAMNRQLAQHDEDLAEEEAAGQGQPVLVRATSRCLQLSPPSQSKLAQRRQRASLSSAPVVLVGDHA
MARK4 (human), sequence (Q96L34 whole entry, looked up): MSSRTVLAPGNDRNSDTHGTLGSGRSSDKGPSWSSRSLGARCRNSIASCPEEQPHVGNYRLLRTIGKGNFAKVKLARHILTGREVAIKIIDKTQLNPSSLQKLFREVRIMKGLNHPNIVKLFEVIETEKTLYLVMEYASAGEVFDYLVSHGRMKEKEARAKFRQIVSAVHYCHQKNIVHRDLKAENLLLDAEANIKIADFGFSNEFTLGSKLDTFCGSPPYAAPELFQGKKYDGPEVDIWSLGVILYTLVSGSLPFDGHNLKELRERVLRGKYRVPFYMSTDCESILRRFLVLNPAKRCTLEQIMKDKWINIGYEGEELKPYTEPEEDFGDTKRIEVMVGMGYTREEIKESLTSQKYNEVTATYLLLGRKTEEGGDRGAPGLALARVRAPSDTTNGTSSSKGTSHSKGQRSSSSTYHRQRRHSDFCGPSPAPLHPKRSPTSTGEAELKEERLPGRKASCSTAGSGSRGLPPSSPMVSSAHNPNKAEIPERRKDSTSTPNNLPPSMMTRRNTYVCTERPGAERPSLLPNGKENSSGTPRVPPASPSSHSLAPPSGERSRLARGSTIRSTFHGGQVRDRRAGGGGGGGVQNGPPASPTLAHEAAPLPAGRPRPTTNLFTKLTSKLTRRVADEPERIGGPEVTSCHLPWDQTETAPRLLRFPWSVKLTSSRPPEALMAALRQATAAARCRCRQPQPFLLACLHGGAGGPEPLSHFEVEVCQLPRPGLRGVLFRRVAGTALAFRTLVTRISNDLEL
RPS6KA1 KD1 KD2 (human), sequence (Q15418 whole entry, looked up): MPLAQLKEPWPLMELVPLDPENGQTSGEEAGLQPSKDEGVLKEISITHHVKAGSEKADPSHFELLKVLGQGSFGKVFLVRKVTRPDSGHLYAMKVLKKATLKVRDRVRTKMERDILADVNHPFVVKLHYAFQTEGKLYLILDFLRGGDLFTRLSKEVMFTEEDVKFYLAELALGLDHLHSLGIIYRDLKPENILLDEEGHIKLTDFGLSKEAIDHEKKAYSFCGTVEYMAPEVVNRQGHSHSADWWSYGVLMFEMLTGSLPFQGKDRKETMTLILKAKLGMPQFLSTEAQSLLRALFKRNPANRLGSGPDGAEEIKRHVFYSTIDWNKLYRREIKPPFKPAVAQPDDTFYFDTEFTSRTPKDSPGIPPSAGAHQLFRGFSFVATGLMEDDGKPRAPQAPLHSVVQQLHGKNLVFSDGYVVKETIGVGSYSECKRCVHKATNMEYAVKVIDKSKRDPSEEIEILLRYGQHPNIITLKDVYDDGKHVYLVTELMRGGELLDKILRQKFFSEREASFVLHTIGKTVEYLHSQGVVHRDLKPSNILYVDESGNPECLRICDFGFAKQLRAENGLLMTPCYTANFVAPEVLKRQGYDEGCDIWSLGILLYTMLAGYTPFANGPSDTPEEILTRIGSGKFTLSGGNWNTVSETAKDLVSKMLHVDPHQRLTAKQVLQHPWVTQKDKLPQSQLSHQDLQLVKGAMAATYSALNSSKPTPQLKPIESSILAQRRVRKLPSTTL

residual activity ([1]; compound 0.1 µM): 97%
residual activity ([1]; compound 1.0 µM): 57%
residual activity ([1]; compound 10.0 µM): 3%
residual activity (AURKA (human); compound 0.1 µM): 92%
residual activity (AURKA (human); compound 1.0 µM): 88%
residual activity (AURKA (human); compound 10.0 µM): 112%
residual activity (BTK (human); compound 0.1 µM): 92%
residual activity (BTK (human); compound 1.0 µM): 120%
residual activity (BTK (human); compound 10.0 µM): 79%
residual activity (CLK2 (human); compound 0.1 µM): 78%
residual activity (CLK2 (human); compound 10.0 µM): 51%
residual activity (CSNK1D (human); compound 0.1 µM): 75%
residual activity (CSNK1D (human); compound 1.0 µM): 42%
residual activity (CSNK1D (human); compound 10.0 µM): 18%
residual activity (CSNK2A1 (human); compound 0.1 µM): 107%
residual activity (CSNK2A1 (human); compound 1.0 µM): 110%
residual activity (CSNK2A1 (human); compound 10.0 µM): 65%
residual activity (DYRK2 (human); compound 0.1 µM): 74%
residual activity (DYRK2 (human); compound 1.0 µM): 29%
residual activity (DYRK2 (human); compound 10.0 µM): 10%
residual activity (FLT1 (human); compound 0.1 µM): 95%
residual activity (FLT1 (human); compound 1.0 µM): 88%
residual activity (FLT1 (human); compound 10.0 µM): 68%
residual activity (HIPK1 (human); compound 0.1 µM): 99%
residual activity (HIPK1 (human); compound 1.0 µM): 99%
residual activity (HIPK1 (human); compound 10.0 µM): 106%
residual activity (HIPK2 (human); compound 0.1 µM): 89%
residual activity (HIPK2 (human); compound 1.0 µM): 125%
residual activity (HIPK2 (human); compound 10.0 µM): 87%
residual activity (INSR (human); compound 0.1 µM): 89%
residual activity (INSR (human); compound 1.0 µM): 86%
residual activity (INSR (human); compound 10.0 µM): 93%
residual activity (INSRR (human); compound 0.1 µM): 100%
residual activity (INSRR (human); compound 1.0 µM): 107%
residual activity (INSRR (human); compound 10.0 µM): 97%
residual activity (IRAK4 (human); compound 0.1 µM): 96%
residual activity (IRAK4 (human); compound 1.0 µM): 127%
residual activity (IRAK4 (human); compound 10.0 µM): 92%
residual activity (JAK2 JH1 JH2 (human); compound 0.1 µM): 82%
residual activity (JAK2 JH1 JH2 (human); compound 1.0 µM): 87%
residual activity (JAK2 JH1 JH2 (human); compound 10.0 µM): 89%
residual activity (MAP3K1 (human); compound 0.1 µM): 115%
residual activity (MAP3K1 (human); compound 10.0 µM): 102%
residual activity (MAP3K9 (human); compound 1.0 µM): 69%
residual activity (MAP3K9 (human); compound 10.0 µM): 103%
residual activity (MAPK1 (human); compound 0.1 µM): 36%
residual activity (MAPK1 (human); compound 1.0 µM): 29%
residual activity (MAPK1 (human); compound 10.0 µM): 6%
residual activity (MAPK11 (human); compound 0.1 µM): 99%
residual activity (MAPK11 (human); compound 1.0 µM): 96%
residual activity (MAPK11 (human); compound 10.0 µM): 62%
residual activity (MAPK14 (human); compound 0.1 µM): 104%
residual activity (MAPK14 (human); compound 1.0 µM): 116%
residual activity (MAPK14 (human); compound 10.0 µM): 103%
residual activity (MAPKAPK3 (human); compound 0.1 µM): 92%
residual activity (MAPKAPK3 (human); compound 1.0 µM): 100%
residual activity (MAPKAPK3 (human); compound 10.0 µM): 92%
residual activity (MARK3 (human); compound 0.1 µM): 92%
residual activity (MARK3 (human); compound 1.0 µM): 40%
residual activity (MARK3 (human); compound 10.0 µM): 15%
residual activity (MARK4 (human); compound 0.1 µM): 87%
residual activity (MARK4 (human); compound 1.0 µM): 46%
residual activity (MARK4 (human); compound 10.0 µM): 10%
residual activity (MKNK2 (human); compound 0.1 µM): 76%
residual activity (MKNK2 (human); compound 1.0 µM): 31%
residual activity (MKNK2 (human); compound 10.0 µM): 6%
residual activity (NEK2 (human); compound 0.1 µM): 111%
residual activity (NEK2 (human); compound 1.0 µM): 129%
residual activity (NEK2 (human); compound 10.0 µM): 113%
residual activity (NEK6 (human); compound 0.1 µM): 86%
residual activity (NEK6 (human); compound 1.0 µM): 87%
residual activity (NEK6 (human); compound 10.0 µM): 42%
residual activity (NTRK1 (human); compound 0.1 µM): 72%
residual activity (NTRK1 (human); compound 10.0 µM): 71%
residual activity (PRKCA (human); compound 0.1 µM): 97%
residual activity (PRKCA (human); compound 1.0 µM): 95%
residual activity (PRKCA (human); compound 10.0 µM): 90%
residual activity (RIPK2 (human); compound 0.1 µM): 96%
residual activity (RIPK2 (human); compound 1.0 µM): 96%
residual activity (RIPK2 (human); compound 10.0 µM): 79%
residual activity (RPS6KA1 KD1 KD2 (human); compound 0.1 µM): 88%
residual activity (RPS6KA1 KD1 KD2 (human); compound 1.0 µM): 53%
residual activity (RPS6KA1 KD1 KD2 (human); compound 10.0 µM): 2%
residual activity (RPS6KA5 KD1 KD2 (human); compound 0.1 µM): 97%
residual activity (RPS6KA5 KD1 KD2 (human); compound 1.0 µM): 109%
residual activity (RPS6KA5 KD1 KD2 (human); compound 10.0 µM): 79%
residual activity ([2]; compound 0.1 µM): 92%
residual activity ([2]; compound 1.0 µM): 96%
residual activity ([2]; compound 10.0 µM): 94%
residual activity (SRPK1 (human); compound 0.1 µM): 105%
residual activity (SRPK1 (human); compound 1.0 µM): 86%
residual activity (SRPK1 (human); compound 10.0 µM): 46%
residual activity ([3]; compound 0.1 µM): 77%
residual activity ([3]; compound 10.0 µM): 71%
residual activity (YES1 (human); compound 0.1 µM): 107%
residual activity (YES1 (human); compound 1.0 µM): 94%
residual activity (YES1 (human); compound 10.0 µM): 76%
SMILES: NC(=O)c1cc(-c2ccnc(NC3CCCCC3)c2)nc(N2CCNCC2)c1
residual activity (MAPK15 (human); compound 0.1 µM): 63%
residual activity (MAPK15 (human); compound 1.0 µM): 26%
residual activity (MAPK15 (human); compound 10.0 µM): 4%
